Laboratory results: patent US8722373B2, “Contaminant control in Zymomonas fermentation using virginiamycin” (E I du Pont de Nemours and Company, priority 2012, dated 2014)

Assays:
[1] = tested on: Zymomonas mobilis strain ZM4; details: concentrations that are safe to use with yeast; Agrawan and Basappa 1996; cited from earlier work
[2] = tested on: Lactobacillus plantarum strain ATCC 8014; test: Contamination control in Z. mobilis seed medium (lactic acid formation); assay type: cell-based; details: fermentation broth with media lacking cellulosic biomass hydrolysate
Description: (§1) Fermentation samples were taken at timed intervals and analyzed for EtOH, residual sugars, and other metabolic products such as acetic acid, lactic acid, and glycerol using either a Waters HPLC system (Alliance system, Waters Corp., Milford, Mass.) or an Agilent 1100 Series LC; conditions=0.6 mL/min of 0.01 N H2SO4, injection volume=5 μL, autosampler temperature=10° C., column temperature=55° C., run time=25 min, detection by refractive index (maintained at 40° C.). The HPLC column was purchased from BioRad (Aminex HPX-87H, BioRad Inc., Hercules, Calif.). Analytes were quantified by refractive index detection and compared to known standards.
Z. mobilis strain ZW705 (described in General Methods) inoculum was prepared by reviving 2 mL of OD-10 frozen stock in MRM3G6 medium (10 g/L BBL yeast extract, 2 g/L KH2PO4, 1 g/L MgSO4*7H2O, 60 g/L glucose, pH 5.5) at 33° C. for ˜8 hr, at which point the OD was ˜2. Lactobacillus plantarum strain ATCC 8014 inoculum was prepared by inoculating MRS medium with an individual colony and allowing growth at 33° C. for 8 hr, at which point the OD was ˜0.4.
Seed medium (10 g/L Amberex695 yeast extract, 2 g/L KH2PO4, 5 g/L MgSO4*7H2O, 10 mM sorbitol, 150 g/L glucose, pH 5.5) was prepared and sterilized by autoclaving (121° C., 30 min). […]

L. plantarum = test: Contaminated Z. mobilis hydrolysate fermentation with Lactrol in the medium (lactic acid); assay type: cell-based, Lactobacillus plantarum; details: fermentation broth with media containing cellulosic biomass hydrolysate
Description: as §1
To determine the Lactrol® dose required to prevent lactic acid formation during hydrolysate fermentation, a portion of intentionally-contaminated seed culture F1067 at EFT=19.3 hr (from Example 1) was used as a seed culture to inoculate cob hydrolysate medium (FRF13; see General Methods) (adjusted to pH 5.8, +10 mM sorbitol) at 10 vol % (final volume) containing either 0 ppm (sample F1069) or 2 ppm (sample F1071) of Lactrol®, which was then fermented at 33° C. (reduced to 30° C. at EFT=21 hr) and pH 5.8 (adjusted with 4 N NaOH). […]

Z. mobilis strain ZW705 = test: Tolerance of Z. mobilis to virginiamycin: growth in clarified MD07#3 hydrolysate; assay type: cell-based, Zymomonas mobilis; details: 2.5 ppm and 5 ppm virginiamycin; clarified cellulosic biomass hydrolysate medium, conditions of Example 1
Description: Z. mobilis strain ZW705 (described in General Methods) inoculum was prepared by reviving 2 mL of OD-10 frozen stock in MRM3G6 medium (10 g/L BBL yeast extract, 2 g/L KH2PO4, 1 g/L MgSO4*7H2O, 60 g/L glucose, pH 5.5) at 33° C. for ˜8 hr. This culture was used to inoculate tubes containing clarified MD07#3 hydrolysate (see General Methods) supplemented with 2 g/L yeast extract and various virginiamycin preparations at a 20% (final volume) inoculation rate, producing an initial OD of ˜0.5. Stocks of the virginiamycin-containing agents Lactrol®, Lactoside V™ or Lactoside 247™ were prepared at 1000 ppm in ethanol. These agents were added to the media at 2.5 ppm, 5 ppm, 10 ppm, or 20 ppm. […] The tubes were maintained at 33° C. with shaking for 32 hours, with growth monitored by measuring OD600.

## CC1(C)S[C@@H]2[C@H](NC(=O)Cc3ccccc3)C(=O)N2[C@H]1C(=O)O [penicillin G]
[1]
  effect on growth of / safety for Zymomonas: safe for use with Zymomonas

## [H]/N=C(/N)N[C@H]1[C@H](O)[C@@H](O)[C@H](O[C@@H]2O[C@@H](C)[C@](O)(C=O)[C@H]2O[C@@H]2O[C@@H](CO)[C@H](O)[C@@H](O)[C@@H]2NC)[C@@H](N/C(N)=N\[H])[C@@H]1O [streptomycin]
[1]
  effect on growth of / safety for Zymomonas: inhibitory to growth

## polymixin
[1]
  effect on growth of / safety for Zymomonas: inhibitory to growth

## virginiamycin
[2]
  concentration of virginiamycin that controls contaminating bacteria without affecting glucose utilization and ethanol production of Zymomonas cells: about 2 ppm
L. plantarum
  concentration of virginiamycin that controls contaminating bacteria while maintaining typical ethanol production: at least 10 ppm
Z. mobilis strain ZW705
  growth of Zymomonas cells (OD600) compared with absence of virginiamycin: improved growth
